Structures can show the parent of a compound that is named as a salt.
Assays:
[1] = target: rhIDO (recombinant human IDO) (Homo sapiens, UniProt P14902); assay: Enzyme assay using rhIDO (rate of kynurenine production); format: biochemical; details: 2 h; final concentration of the compound 10 μM; rate relative to reaction without compound; read-out: rhIDO-mediated kynurenine production
Description: Enzyme Assay Protocol Using rhIDO (Recombinant Human IDO)
4 μL of a compound solution was added to 176 μL of a rhIDO reaction solution (0.5 M potassium phosphate buffer (20 μL), 0.2 M ascorbic acid (20 μL), 0.5 mM methylene blue (4 μL), 10 mg/mL catalase (2 μL), H2O (128 μL), and rhIDO (2 μL)). The mixture was pipetted and preincubated at 37° C. for 10 minutes. Then, the whole amount was brought to 200 μL by the addition of 20 μL of a 2 mM aqueous tryptophan solution, and the mixture was pipetted again and reacted at 37° C. for 120 minutes. After the reaction, the enzymatic reaction was terminated by the addition of 40 μL of a 30% [v/v] aqueous trichloroacetic acid solution to the reaction solution. The mixture was well stirred by pipetting and heated at 50° C. for 15 minutes so that N-formylkynurenine was converted to kynurenine. The reaction solution thus heated was centrifuged (15,000 rpm, 5 min, 24° C.), and 150 μL of the supernatant was transferred to a transparent 96-well flat-bottomed plate, followed by the measurement of absorbance at 490 nm using SpectraMax MSSK (background measurement). After the measurement, a solution of 2% [w/v] p-dimethylbenzaldehyde in acetic acid was added at 150 μL/well and reacted for 5 minutes, followed by the measurement of absorbance at 490 nm again. The rate of kynurenine production was calculated according to the following expression. Rate of kynurenine production (%) for each compound in the case of using rhIDO={(Absorbance at 490 nm in the tryptophan-containing aqueous solution comprising rhIDO and the compound of the present invention−Absorbance of the background)/(Absorbance at 490 nm in the tryptophan-containing aqueous solution without the addition of the compound solution−Absorbance of the background)}×100 Enzyme Assay Protocol Using rhTDO (Recombinant Human TDO)

[2] = target: rhTDO (recombinant human TDO) (Homo sapiens, UniProt P48775); assay: Enzyme assay using rhTDO (rate of kynurenine production); format: biochemical; details: 2 h; final concentration of the compound 10 μM; rate relative to reaction without compound; read-out: rhTDO-mediated kynurenine production
rhTDO (recombinant human TDO), sequence (P48775 whole entry): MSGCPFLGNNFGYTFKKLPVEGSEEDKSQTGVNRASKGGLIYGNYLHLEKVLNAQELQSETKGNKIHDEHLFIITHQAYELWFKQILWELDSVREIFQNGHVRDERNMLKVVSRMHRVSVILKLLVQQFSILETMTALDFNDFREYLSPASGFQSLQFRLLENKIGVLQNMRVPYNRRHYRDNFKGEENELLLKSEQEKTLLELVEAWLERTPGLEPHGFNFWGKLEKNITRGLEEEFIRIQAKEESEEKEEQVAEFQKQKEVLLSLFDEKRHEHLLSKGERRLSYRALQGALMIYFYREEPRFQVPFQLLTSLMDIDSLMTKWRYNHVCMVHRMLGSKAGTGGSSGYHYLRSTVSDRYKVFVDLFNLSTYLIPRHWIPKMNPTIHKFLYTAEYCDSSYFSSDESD
Description: 4 μL of a compound solution was added to 176 μL of a rhTDO reaction solution (0.5 M potassium phosphate buffer (20 μL), 0.2 M ascorbic acid (20 μL), 0.5 mM methylene blue (4 μL), 10 mg/mL catalase (2 μL), H2O (128 μL), and rhTDO (2 μL)). The mixture was pipetted and preincubated at 37° C. for 10 minutes. Then, the whole amount was brought to 200 μL by the addition of 20 μL of a 20 mM aqueous tryptophan solution, and the mixture was pipetted again and reacted at 37° C. for 120 minutes. After the reaction, the enzymatic reaction was terminated by the addition of 40 μL of a 30% [v/v] aqueous trichloroacetic acid solution to the reaction solution. The mixture was well stirred by pipetting and heated at 50° C. for 15 minutes so that N-formylkynurenine was converted to kynurenine. The reaction solution thus heated was centrifuged (15,000 rpm, 5 min, 24° C.), and 150 μL of the supernatant was transferred to a transparent 96-well flat-bottomed plate, followed by the measurement of absorbance at 490 nm using SpectraMax M5 SK (background measurement). After the measurement, a solution of 2% [w/v] p-dimethylbenzaldehyde in acetic acid was added at 150 μL/well and reacted for 5 minutes, followed by the measurement of absorbance at 490 nm again. The rate of kynurenine production was calculated according to the following expression. Rate of kynurenine production (%) for each compound in the case of using rhTDO={(Absorbance at 490 nm in the tryptophan-containing aqueous solution comprising rhTDO and the compound of the present invention−Absorbance of the background)/(Absorbance at 490 nm in the tryptophan-containing aqueous solution without the addition of the compound solution−Absorbance of the background)}×100 IDO Cell-Based Assay Protocol

IDO in A431 cells = target: T1, IDO in A431 cells (Homo sapiens, UniProt P14902); assay: IDO cell-based assay, kynurenine production in IFN-γ stimulated A431 cells; details: A-431, 24 h; final concentration of the compound 10 μM; rate relative to culture without compound
T1 construct: endogenous in cells; host or cells: A431 cells, IFN-γ stimulated
T1 sequence (P14902 whole entry): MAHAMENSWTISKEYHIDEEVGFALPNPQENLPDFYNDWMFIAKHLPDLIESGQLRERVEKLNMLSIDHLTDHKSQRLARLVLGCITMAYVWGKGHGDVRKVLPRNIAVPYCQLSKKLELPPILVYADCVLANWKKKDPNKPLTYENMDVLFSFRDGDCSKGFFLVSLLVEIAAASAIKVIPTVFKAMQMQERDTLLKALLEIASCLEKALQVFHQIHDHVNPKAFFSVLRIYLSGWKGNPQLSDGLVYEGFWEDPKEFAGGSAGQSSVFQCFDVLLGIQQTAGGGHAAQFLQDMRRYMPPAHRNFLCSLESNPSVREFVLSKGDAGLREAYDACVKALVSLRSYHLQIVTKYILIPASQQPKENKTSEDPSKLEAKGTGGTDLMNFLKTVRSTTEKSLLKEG
Description: A431 cells (3.0×10^5 cells/mL) suspended in a culture medium for assay (D-MEM; Wako 040-30095, 5% FBS, 50 units/mL penicillin, 50 μg/mL streptomycin, and 2 mM L-glutamine) were inoculated at 100 μL/well to a transparent 96-well flat-bottomed plate and cultured at 37° C. for 24 hours in 5% CO2. The culture medium was removed from the cells thus cultured. A tryptophan-containing culture medium (culture medium for assay supplemented with 178 μM L-tryptophan) was added at 80 μL/well, and further, a compound solution was added at 10 μL/well. The cells were preincubated for 1 hour. Then, the whole amount was brought to 100 μL/well by the addition of 10 μL/well of IFN-γ diluted into 100 ng/mL with a tryptophan-containing culture medium, and the cells were cultured for 24 hours. After the culture, absorbance was measured at 460 nm using SpectraMax MSSK (Molecular Devices, LLC) (background measurement). After the measurement, a kynurenine quantification reagent (prepared with 7% [v/v] aqueous trichloroacetic acid solution and a solution of 2% [w/v] p-dimethylbenzaldehyde in acetic acid at 2:5 [v/v]) was added at 200 μL/well and reacted for 5 minutes, followed by the measurement of absorbance at 460 nm again. The rate of kynurenine production was calculated according to the following expression. Rate of kynurenine production (%) for each compound in the case of using A431 cells={(Absorbance at 460 nm in the tryptophan-containing culture medium comprising the A431 cells and the solution of the compound of the present invention−Absorbance of the background)/(Absorbance at 460 nm in the tryptophan-containing culture medium without the addition of the compound solution−Absorbance of the background)}×100 TDO Cell-Based Assay Protocol

TDO in A172 cells = target: T2, TDO in A172 cells (Homo sapiens, UniProt P48775); assay: TDO cell-based assay, kynurenine production in A172 cells; details: A 172; final concentration of the compound 10 μM; rate relative to culture without compound
T2 construct: endogenous in cells; host or cells: A172 cells
T2 sequence (P48775 whole entry): as the sequence (P48775 whole entry) above
Description: A172 cells (3.0×10^5 cells/mL) suspended in a culture medium for assay (PRMI-1640; Wako 186-02155, 5% FBS, 50 units/mL penicillin, and 50 μg/mL streptomycin) were inoculated at 100 μL/well to a transparent 96-well flat-bottomed plate and cultured at 37° C. for 24 hours in 5% CO2. The culture medium was removed from the cells thus cultured. A culture medium for assay was added at 80 μL/well, and further, a compound solution was added at 10 μL/well. The cells were preincubated for 1 hour. Then, the whole amount was brought to 100 μL/well by the addition of 10 μL/well of a 5 mM aqueous tryptophan solution (final concentration of L-tryptophan: 524 μM), and the cells were cultured for 24 hours. After the culture, absorbance was measured at 460 nm using SpectraMax MSSK (Molecular Devices, LLC) (background measurement). After the measurement, a kynurenine quantification reagent (prepared with 7% [v/v] aqueous trichloroacetic acid solution and a solution of 2% [w/v] p-dimethylbenzaldehyde in acetic acid at 2:5 [v/v]) was added at 200 μL/well and reacted for 5 minutes, followed by the measurement of absorbance at 460 nm again. The rate of kynurenine production was calculated according to the following expression. Rate of kynurenine production (%) for each compound in the case of using A172 cells={(Absorbance at 460 nm in the tryptophan-containing culture medium comprising the A172 cells and the solution of the compound of the present invention−Absorbance of the background)/(Absorbance at 460 nm in the tryptophan-containing culture medium without the addition of the compound solution−Absorbance of the background)}×100

rhIDO (recombinant human IDO), sequence (P14902 whole entry): as the sequence (P14902 whole entry) above

Compound | remaining activity at 10 µM [1] [%] | remaining activity at 10 µM [2] [%] | remaining activity at 10 µM (IDO in A431 cells) [%] | remaining activity at 10 µM (TDO in A172 cells) [%]
Clc1ccc(CCN2CN=C(SCc3cc(Cl)c(Cl)cc3CSC3=NCN(CCc4ccc(Cl)c(Cl)c4)CN3)NC2)cc1Cl [Compound 38, 6,6′-(((4,5-Dichloro-1,2-phenylene)bis(methylene))bis(sulfanediyl))bis(3-(3,4-dichlorophenethyl)-1,2,3,4-tetrahydro-1,3,5-triazine)] | 16 | 37 | 2 | -1
Clc1ccc(CCN2CN=C(SCc3ccc(Br)cc3CSC3=NCN(CCc4ccc(Cl)c(Cl)c4)CN3)NC2)cc1Cl [Compound 39, 6,6′-(((4-Bromo-1,2-phenylene)bis(methylene))bis(sulfanediyl))bis(3-(3,4-dichlorophenethyl)-1,2,3,4-tetrahydro-1,3,5-triazine)] | 7 | 38 | 0 | 7
c1csc(CCN2CN=C(SCc3ccccc3CSC3=NCN(CCc4cccs4)CN3)NC2)c1 [Compound 40, 1,2-Bis (((5-(2-(thiophen-2-yl)ethyl)-1,4,5,6-tetrahydro-1,3,5-triazin-2-yl)thio)methyl)benzene] | 34 | 29 | 9 | 1
Clc1ccc(CN2CN=C(SCc3ccccc3CSC3=NCN(Cc4ccc(Cl)cc4)CN3)NC2)cc1 [Compound 41, 1,2-Bis(((5-(4-chlorobenzyl)-1,4,5,6-tetrahydro-1,3,5-triazin-2-yl)thio)methyl)benzene] | 41 | 45 | 6 | 4
FC(F)(F)c1ccc(CN2CN=C(SCc3ccccc3CSC3=NCN(Cc4ccc(C(F)(F)F)cc4)CN3)NC2)cc1 [Compound 42, 1,2-Bis(((5-(4-(trifluoromethyl)benzyl)-1,4,5,6-tetrahydro-1,3,5-triazin-2-yl)thio)methyl)benzene] | 68 | 41 | 6 | 2
Fc1ccc(CN2CN=C(SCc3ccccc3CSC3=NCN(Cc4ccc(F)c(F)c4)CN3)NC2)cc1F [Compound 43, 1,2-Bis(((5-(3,4-difluorobenzyl)-1,4,5,6-tetrahydro-1,3,5-triazin-2-yl)thio)methyl)benzene] | 71 | 41 | 11 | -2
Cc1ccc(C)c(CN2CN=C(SCc3ccccc3CSC3=NCN(Cc4cc(C)ccc4C)CN3)NC2)c1 [Compound 44, 1,2-Bis(((5-(2,5-dimethylbenzyl)-1,4,5,6-tetrahydro-1,3,5-triazin-2-yl)thio)methyl)benzene] | 50 | 26 | 11 | 1
Fc1cccc(CN2CN=C(SCc3ccccc3CSC3=NCN(Cc4cccc(F)c4)CN3)NC2)c1 [Compound 45] | 65 | 33 | 13 | 0
N=C(N)SCc1ccc(C(F)(F)F)cc1CSC(=N)N [Compound 46, dihydrobromide] | 3 | 14 | 10 | 24
FC(F)(F)c1ccc(CSC2=NCN(CCc3ccc(Cl)c(Cl)c3)CN2)c(CSC2=NCN(CCc3ccc(Cl)c(Cl)c3)CN2)c1 [Compound 47, 6,6′-(((4-(Trifluoromethyl)-1,2-phenylene)bis(methylene))bis(sulfanediyl))bis(3-(3,4-dichlorophenethyl)-1,2,3,4-tetrahydro-1,3,5-triazine)] | 16 | 53 | 15 | 45
FC(F)(F)c1ccc(CSC2=NCN(CCc3ccccc3Cl)CN2)c(CSC2=NCN(CCc3ccccc3Cl)CN2)c1 [Compound 48, 6,6′-(((4-(Trifluoromethyl)-1,2-phenylene)bis(methylene))bis(sulfanediyl))bis(3-(2-chlorophenethyl)-1,2,3,4-tetrahydro-1,3,5-triazine)] | 80 | 73 | 63 | 71
N=C(N)SCCc1ccccc1CSC(=N)N [Compound 51, 2-(2-(Carbamimidoylthio)ethyl)benzyl carbamimidothioate dihydrobromide] | 19 | 13 | 23 | 25

Reference: patent US12209079B2 (GENERAL INCORPORATED ASSOCIATION PHARMA VALLEY PROJECT …, priority 2017, dated 2025)
